{
  "source": "patent US20050074820A1",
  "about": "“Method for the immunohistological detection of fibrogenesis in histological tissue sections using antiboides against C-terminal procollagen alpha1 (III) propeptide” (priority 2001, published 2005)",
  "key": {"[1]": {"test_system": "patients with chronic hepatitis B", "experiment": "Serum ALT before and after 52 weeks of treatment, phase III trials", "type": "in vivo, human"}, "[2]": {"test_system": "hepatitis B virus (HBV) DNA", "experiment": "HBV DNA concentration before and after treatment", "type": "in vivo"}, "α-SMA": {"test_system": "α-SMA", "experiment": "Quantitative immunostain of α-SMA in liver tissue sections (image analysis)", "type": "in vivo, human", "conditions": "for α-SMA expression (stained area over total area): all lamivudine patients; for α-SMA expression: lamivudine-treated, Pre", "description": "(§1) Paraffin-embedded tissue sections were stained for α-smooth muscle actin (α-SMA) or PIIICP (FIG. 2). The staining procedure was carried out using the DAKO Envision System (DAKO; Carpinteria, Calif., USA). After inhibiting endogenous peroxidase with Peroxidase Blocking Agent (DAKO) the tissue sections were incubated for 10 minutes at room temperature with a murine monoclonal anti-α-SMA antibody (diluted 1:200 in PBS+1% BSA) or with a murine monoclonal anti-PIIICP antibody (antibody concentration 5 mg/ml; diluted 1:100 in PBS+1% BSA). After the incubation, the sections were washed twice with PBS buffer for 3 minutes, respectively. The tissue sections were then incubated with labelled polymer (peroxidase-labelled polymer conjugated with anti-rabbit and anti-mouse immunoglobulins from the goat) at room temperature for 10 minutes. After washing twice with PBS buffer the tissue sections were incubated with 3,3-diaminobenzidine (DAB) substrate for 8 minutes, rinsed with water and exposed to DAB Enhancer (Innovex Bioscience; Richmond, Calif., USA) for 5 minutes and subsequently rinsed with water again. Counterstaining was performed with hematoxyline. As a negative control all samples were incubated with 1% BSA solution instead of antibody.\n(§2) The stained parenchymal areas on the tissue sections, that are formed by α-SMA or PIIICP-positive hepatic stellate cells, were quantified with the Bioquant TCW 98 image analysis program (Bioquant Image Analysis; www.bioquant.com) with the connected Computer as well as with an Olympus microscope. The results were stated as the percent ratio between the stained area and the total area.\n(§3) The immunohistochemical quantification was futhermore correlated with changes of individual components of the histological activity index (HAI) or with entire HAI. For the individual patients in both treatment groups—lamivudine or placebo, respectively—the change of α-SMA- or PIIICP-stained areas was calculated according to: ΔSMA (or ΔPIIICP)=percent area before treatment minus percent […]. The mean change was compared between the lamivudine-treated and the placebo-treated groups using Student's t-Test."}, "PIIICP": {"test_system": "PIIICP", "experiment": "Quantitative immunostain of PIIICP in liver tissue sections (image analysis)", "type": "in vivo, human", "conditions": "for PIIICP expression (stained area over total area): all lamivudine patients; for PIIICP expression: lamivudine-treated, Pre", "description": "as §1, §2, §3"}, "[3]": {"test_system": "hepatitis B e-antigen (HBeAg)", "experiment": "Loss of hepatitis B e-antigen under treatment", "type": "in vivo, hepatitis B virus", "conditions": "lamivudine 100 mg daily, 52 weeks; versus 9% placebo, p<0.05", "excerpt": "The liver tissue samples were examined by a pathologist. […] A reduction of the HAI by 2 points HAI is considered a significant change in hepatic histology after the termination of the treatment.\nThe baselines and the quantitative immunostains against α-SMA und PIIICP were compared between lamivudine und placebo patients using Student's t-tests. In addition, the results of the immunostains were correlated with the loss of the hepatitis B e-antigen (HBeAg) using the Mantel-Haenszel chi square test."}, "[4]": {"conditions": "lamivudine group n = 47, Post (100 mg daily, 52 weeks)"}},
  "data": [
    {"smiles": "Nc1ccn([C@@H]2CS[C@H](CO)O2)c(=O)n1", "note": "[Lamivudine, lamivudine]", "values": [
      {"measurement": "ALT (mean ± SD)", "setting": "[1]; chronic hepatitis B patients, lamivudine group n = 47, Pre (before treatment)", "value": "154 ± 100", "unit": "IU/l"},
      {"measurement": "ALT (mean ± SD)", "setting": "[1]; [4]", "value": "60.7 ± 55", "unit": "IU/l"},
      {"measurement": "HBV DNA", "setting": "[2]; [4]", "value": "33 ± 120", "unit": "pg/mL"},
      {"measurement": "HBV DNA", "setting": "[2]; lamivudine group n = 47, Pre (before treatment)", "value": "180 ± 211^ψ pg/ml"},
      {"measurement": "α-SMA expression (stained area over total area)", "setting": "α-SMA; after treatment", "value": "0.58±0.11", "unit": "%"},
      {"measurement": "α-SMA expression (stained area over total area)", "setting": "α-SMA; before treatment", "value": "1.06±0.23", "unit": "%"},
      {"measurement": "α-SMA expression", "setting": "α-SMA; HbeAg loss (n = 17)", "value": 1.46},
      {"measurement": "α-SMA expression", "setting": "α-SMA; No loss of HbeAg (n = 30)", "value": 0.83},
      {"measurement": "PIIICP expression (stained area over total area)", "setting": "PIIICP; after lamivudine", "value": 0.02, "unit": "%"},
      {"measurement": "PIIICP expression (stained area over total area)", "setting": "PIIICP; before lamivudine", "value": 0.06, "unit": "%"},
      {"measurement": "PIIICP expression", "setting": "PIIICP; HbeAg loss (n = 17)", "value": 0.10},
      {"measurement": "PIIICP expression", "setting": "PIIICP; No loss of HbeAg (n = 30)", "value": 0.03},
      {"measurement": "patients who lost the HbeAg", "setting": "[3]", "value": 36.2, "unit": "%"}
    ]}
  ]
}
